The results in this text go back to US11793779B2, “Hica for use in prophylaxis and/or treatment of a disease or condition involving degradation of cartilage and/or disruption of cartilage homeostasis and/or integrity” (Salarusta Oy, priority 2020, dated 2023).

The nature of data set [1]: Characteristics of the subjects after four weeks on HICA. It is filed as in vivo, human. Conditions: Mean ± SD. As to the method: (§1) In order to assess the effects of HICA on type II collagen and hyaluronic acid in healthy adults in vivo a study was conducted, where fifteen healthy male athletes (age 21.3±2.8 yr) volunteered for the 4-week study with double-blind design (Table 1). They were randomized to two parallel groups. Subjects in Group 1 (n=8, age 22.8±4.6 yr, height 179±6 cm, weight 76.2±6.9 kg, fat % 14.1±3.7%) received 583.2 mg of sodium salt of HICA (corresponding 500 mg of HICA) thrice a day for 4 weeks, and those in Group 2 (n=7, age 21.3±3.0 yr, height 178±5 cm, weight 73.5±5.0 kg, fat % 11.1±3.0%) received placebo (650 mg of maltodextrin) thrice a day for the same period. The subjects and the controls received repacked substance of equal volume (1.5 ml) which they were advised to mix with liquid. The subjects and the controls kept physical training constant during the study period, and they kept training daily. Serum specimens were obtained at baseline and in the end of the treatment. Specimens were aliquoted and immediately frozen; serum was collected and frozen at −70° C.
The Analysis of Variance (ANOVA) was used to assess statistical differences between the treatment groups. Data were handled as changes between the measurements before and after the treatments. Further, paired t-test was used to compare values before and after treatments. Probabilities less than 0.05 were regarded as statistically significant. Statistical analyses were carried out using the software program Systat for Windows (Statistics, Version 9, Evanston, IL, USA, 1992). The results are presented as means±SEM.

In data set [2] the target is T1, human Matrix metalloproteinase 13 (MMP-13) (Homo sapiens, UniProt P45452).
T1 construct: purchased BioTeZ, Berlin-Buch, Berlin, Germany 30100802
Description: MMP-13 mediated break down of aggrecan (SDS-PAGE, silver stain). It is filed as biochemical. The following applies: 10% racemic HICA, APMA-activated MMP-13, incubation 2 d, FIG. 1 line 11. As to the method: As positive inhibitor controls Ilomastat (Ilo, CC1010, Millipore) and chlorhexidine (CHX, Corsodyl®, [2 mg/ml] (GlaxoSmithKline, Brøndby, Denmark) were used and 50 mM Tris-HCl-buffer (TNC): pH 7.5; 0.2 M NaCl; 1.0 mM CaCl2) was used as neutral assay buffer.
MMP-13 was preincubated 1 hour at 37° C. with p-aminophenylmercuric acetate (APMA, A9563, Sigma-Aldrich) to optimally activate (pro)MMP-13. As substrate, Aggrecan was added and then ADAMTS-5 or activated MMP-13 as catalytic/proteolytic enzyme and TNC, as neutral control, and 10% HICA, CHX or Ilo as protease/MMP-inhibitors let incubated together from 1 hour (h) to 2 days (d). The enzyme reactions terminated by boiling with modified Laemmli buffer. The samples were analysed by 8% SDS-PAGE and after electrophoresis the defragmentation of Aggrecan was visualised using Silver Stain Pierce®.
Sample with concentrations in lines: • 1. 0.25 μl molecular weight standards. Bio-Rad • 2. 4.2 μl Aggrecan (0.5 μg/μl) • 3. 4 μl ADAMTS-5 (0.1 μg/μl) • 4. 4.2 μl Aggrecan+4 μl ADAMTS-5+6 μl TNC-buffer. inc: 2d • 5. 4.2 μl Aggrecan+4 μl ADAMTS-5+6 μl 10% HICA. inc: 2d • 6. 4.2 μl Aggrecan+4 μl ADAMTS-5+6 μl CHX (2 mg/ml). inc: 2d • 7. 1 μl MMP-13 (0.2 μg/μl)+3 μl 2 mM APMA+6 μl TNC • 8. 4.2 μl Aggrecan+1 μl MMP-13 (0.2 μg/μl)+3 μl 2 mM APMA+6 μl TNC. inc: 1h • 9. 4.2 μl Aggrecan+1 μl MMP-13 (0.2 μg/μl)+3 μl 2 mM APMA+6 μl TNC. inc: 2d • 10. […]

In data set [3] the test system is type II collagen C2C neoepitope. Description: Serum type II collagen C2C neoepitope (ELISA) in 4-week double-blind study. It is filed as in vivo, human. As to the method:
as §1
A kit for determination of the type II collagen C2C neoepitope was provided by Ibex Technologies (Montreal, Quebec, Canada). It was measured by means of an enzyme-linked immunosorbent assay (ELISA) (Kojima, Mwale et al. 2001). […]
Background: ELISA stands for enzyme-linked immunosorbent assay.

The test system of a further data set is S-Hyaluronan. Description: Serum hyaluronan (HA-ELISA) in 4-week double-blind study. It is filed as in vivo, human. As to the method: as §1
Serum HA was measured by Hyaluronan Enzyme-Linked Immunosorbent Assay Kit, HA-ELISA (Echelon Biosciences Inc., Salt Lake City, USA). Intra- and interassay coefficients of variation of the serum HA assay were 3.2% and 4.42% respectively. The assay range was 15-1,000 ng/ml, the intraassay CV was <4%, the interassay CV was <6%. […]

For `CC(C)CC(O)C(=O)O` (racemic) [HICA, 2-hydroxy-4-methylpentanoic acid], the “Hematocrite after HICA” value in data set [1] (before 0.44 ± 0.02, p = n.s. vs placebo) amounted to 0.45 ± 0.02. For the same compound, the “Body Fat procent after HICA” value in data set [1] (before 14.1 ± 3.7, p = n.s. vs placebo) came to 14.0 ± 2.5%. Also, in data set [1] (before 76.2 ± 6.9, p = n.s. vs placebo), the “Weight after HICA” value turned out to be 76.5 ± 8.4 kg. For the same compound, the “Hemoglobin after HICA” value in data set [1] (before 152 ± 7, p = n.s. vs placebo) came to 151 ± 5 g/L. In addition, in data set [2], the “inhibition of break down of Aggrecan by MMP-13” value is reported as “inhibited the break down of Aggrecan”. Further, the “S-C2C after HICA” value in data set [3] (Mean ± SEM, n=8 healthy male athletes, sodium salt of HICA corresponding 500 mg HICA thrice a day for 4 weeks, before 204 ± 14, p = 0.069 vs placebo) turned out to be 189 ± 10 ng/mL. In addition, the “decrease in serum C2C” value in data set [3] (during 4-week administration of HICA, placebo 2%, p=0.069 between the groups) is listed as 8%. Besides, the “S-Hyaluronan after HICA” value in the data set on S-Hyaluronan (Mean ± SEM, n=8 healthy male athletes, sodium salt of HICA corresponding 500 mg HICA thrice a day for 4 weeks, before 202 ± 56, p = 0.066 vs placebo) worked out at 143 ± 19 ng/mL. Besides, the “decrease in serum HA concentration” value with S-Hyaluronan (during 4-week administration of HICA, placebo 10%, p=0.066 between the groups) is given as 29%.
